According to patent publication US20110224247A1, “AZAISOQUINOLINONE DERIVATIVES AS NK3 ANTAGONISTS” (H. LUNDBECK A/S, priority 2010, published 2011):
One block for each compound: values may come before it.

Tests used:
human NK3 receptor = biological target: T1, human NK3 receptor (Homo sapiens, UniProt P29371); assay: NK3 receptor binding assay; details: filter-based competition binding vs ~0.05 nM 3H-AE93103, membranes of BHK cells expressing human NK3; Ki by Cheng Prusoff; read-out: Affinity (Ki/nM)
T1 construct: expressed in transfected cells; membranes prepared
T1 sequence (P29371 1-465): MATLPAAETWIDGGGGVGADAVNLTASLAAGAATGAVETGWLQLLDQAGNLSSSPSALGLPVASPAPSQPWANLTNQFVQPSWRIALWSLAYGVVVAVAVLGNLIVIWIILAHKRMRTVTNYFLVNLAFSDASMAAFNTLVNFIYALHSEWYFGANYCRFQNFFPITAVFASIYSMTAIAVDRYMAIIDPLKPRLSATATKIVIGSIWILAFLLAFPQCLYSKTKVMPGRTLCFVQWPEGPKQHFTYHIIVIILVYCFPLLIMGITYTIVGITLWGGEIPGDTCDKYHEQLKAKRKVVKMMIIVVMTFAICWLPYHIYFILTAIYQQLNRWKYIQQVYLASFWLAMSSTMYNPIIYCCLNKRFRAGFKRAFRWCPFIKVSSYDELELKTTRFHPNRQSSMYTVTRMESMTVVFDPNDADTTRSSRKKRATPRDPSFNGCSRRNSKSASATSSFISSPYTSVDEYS
Description: Membranepreparation: BHK cells stably expressing the human NK3 receptor were seeded in harvesting plates in Dulbeccos MEM containing GlutaMax (862 mg/l), 1 mM sodium pyruvate, 10% fetal calf serum, 1% Pen/Strep, 1 mg/ml G418 and were grown at 34° C. in a humidified atmosphere containing 10% CO2. To increase receptor expression, 10 μM trichotatin A was added to the media 24 hours before harvest of the cells at a confluency of app 90%. Prior to the harvesting, the cells were washed twice with PBS without Mg^2+ and Ca^2+ and subsequently scrapped of in 10 ml PBS pr harvesting plate. The cells suspension were centrifuged at 1500×G in three minutes before resuspension in 15 mM Tris-HCl pH 7,5 buffer containing 2 mM MgCl2; 0,3 mM EDTA and 1 mM EGTA (buffer A). The cell suspention was homogenised and subsequently centrifuged at 40000×G in 30 minutes. The membrane-pellet was resuspended in buffer A containing 250 mM sucrose, alliquoted and stored at −80° C.
Affinity assay description: The assay is performed as a filter-based competition-binding in a 50 mM Tris pH 7.4 assay buffer containing 120 mM NaCl and 3 mM MnCl2. App 0.05 nM ^3H-AE93103 was mixed with test compounds before addition of 0.15 μg of a homogenised NK3 membrane preparation in a total volume of 300 μl. The assay plate is incubated for 90 min at RT before content of the wells is transferred using a cell-harvester to GF/C filter plates, which has been pretreated with 0.1% PEI. The filter is washed 3 times with 1 ml an ice-cold 50 mM Tris buffer, pH 7,4. The filter is dried and added scintillation liquid before the plate is counted in a topcounter 5 minutes pr well.
The total binding, which comprised less than 10% of added radioligand, was defined using assay buffer whereas the non-specific binding was defined in the presence of 1 μM SR142801. The non-specific binding constituted ˜10% of the total binding. Data points are expressed in percent of the specific binding of ^3H-AE93103 and the […] (concentration causing 50% inhibition of ^3H-AE93103 specific binding) are determined by non-linear regression analysis using a sigmoidal variable slope curve fitting.

[1] = cited from earlier work
[2] = in vivo; cited from earlier work
[3] = cited from earlier work; remark: listed apart in the source

SMILES: CCCNn1c(C)c(C(=O)N[C@H](c2ccc(F)cc2)C2CC2)c2cnccc2c1=O [Example 1b, 3-Methyl-1-oxo-2-propylamino-1,2-dihydro-[2,6]naphthyridine-4-carboxylic acid [(S)-cyclopropyl-(4-fluoro-phenyl)-methyl]-amide]
Ki (human NK3 receptor): 720 nM

SMILES: CCCNn1c(C)c(C(=O)NC(c2ccccc2F)C2CCC2)c2cnccc2c1=O (stereo not drawn) [Example 1d, 3-Methyl-1-oxo-2-propylamino-1,2-dihydro-[2,6]naphthyridine-4-carboxylic acid [cyclobutyl-(2-fluoro-phenyl)-methyl]-amide]
Ki (human NK3 receptor): 160 nM

SMILES: CCCNn1c(C)c(C(=O)N[C@@H](CC)c2ccccc2)c2cnccc2c1=O [Example 1g, 3-Methyl-1-oxo-2-propylamino-1,2-dihydro-[2,6]naphthyridine-4-carboxylic acid ((S)-1-phenyl-propyl)-amide]
Ki (human NK3 receptor): 430 nM

SMILES: CC(=O)N(C)C1(c2ccccc2)CCN(CCC[C@]2(c3ccc(Cl)c(Cl)c3)CCCN(C(=O)c3ccccc3)C2)CC1 [Osanetant]
Effect in clinical trials, in particular on positive symptoms of psychosis ([1]; delusions, hallucinations and paranoia): superior to placebo
bioavailability [2]: poor
blood-brain barrier penetration [2]: poor
clearance [2]: relatively high
solubility [3]: poor

SMILES: CC[C@H](NC(=O)c1c(O)c(-c2ccccc2)nc2ccccc12)c1ccccc1 [talnetant]
Effect on cognitive behaviour of schizophrenics in clinical trials ([1]; schizophrenics): ameliorate the cognitive behaviour
bioavailability [2]: poor
blood-brain barrier penetration [2]: poor
clearance [2]: relatively high
solubility [3]: poor

Next, values leading:

Ki (human NK3 receptor): 58 nM
SMILES: CCNn1c(C)c(C(=O)N[C@H](c2cccc(F)c2)C2CCC2)c2cnccc2c1=O [Example 1a, 2-Ethylamino-3-methyl-1-oxo-1,2-dihydro-[2,6]naphthyridine-4-carboxylic acid [(S)-cyclobutyl-(3-fluoro-phenyl)-methyl]-amide]

Ki (human NK3 receptor): 540 nM
SMILES: CCCNn1c(C)c(C(=O)N[C@H](c2cccc(Cl)c2)C2CC2)c2cnccc2c1=O [Example 1c, 3-Methyl-1-oxo-2-propylamino-1,2-dihydro-[2,6]naphthyridine-4-carboxylic acid [(S)-(3-chloro-phenyl)-cyclopropyl-methyl]-amide]

Ki (human NK3 receptor): 33 nM
SMILES: CCCNn1c(C)c(C(=O)N[C@H](c2cccc(F)c2)C2CCC2)c2cnccc2c1=O [Example 1e, 3-Methyl-1-oxo-2-propylamino-1,2-dihydro-[2,6]naphthyridine-4-carboxylic acid [(S)-cyclobutyl-(3-fluoro-phenyl)-methyl]-amide]

Ki (human NK3 receptor): 91 nM
SMILES: CCNn1c(C)c(C(=O)N[C@H](c2cccc(F)c2)C2CCC2)c2ncccc2c1=O [Example 2a, 6-Ethylamino-7-methyl-5-oxo-5,6-dihydro-[1,6]naphthyridine-8-carboxylic acid [(S)-cyclobutyl-(3-fluoro-phenyl)-methyl]-amide]

Ki (human NK3 receptor): 110 nM
SMILES: CCNn1c(C)c(C(=O)N[C@H](c2cccc(F)c2)C2CCC2)c2ccncc2c1=O [Example 3a, 2-Ethylamino-3-methyl-1-oxo-1,2-dihydro-2,7-naphthyridine-4-carboxylic acid [(S)-cyclobutyl-(3-fluoro-phenyl)-methyl]-amide]
